Measurements published in patent US20250313535A1, “ALPHA 4 BETA 7 INTEGRIN MODULATORS AND USES THEREOF” (DICE MOLECULES SV, INC., priority 2022, published 2025).

Assays:
α4β7 integrin = α4β7 integrin (Homo sapiens (Human), UniProt P13612+P26010); test: Integrin Adhesion Assay: Protocol 1 (MAdCAM-coated plate, RPMI-8866 cells, CellTiter GLO readout); assay type: cell-based
Experimental: α4β7 and α4β1 inhibition was evaluated in vitro using at least one of the following procedures:
Integrin Adhesion Assay: Protocol 1
MAdCAM (R&D Systems, 0.1 ug) was diluted in 50 μL PBS, added to each well of an opaque ELISA plate (Thermo), and incubated overnight at 4° C. Coated plates were washed once with PBS and then blocked with 200 μL of assay buffer (10 mM HEPES, 150 mM NaCl, 1 mM MnCl2, 0.1 mM CaCl2), 1% BSA) for 1 hour at 37° C. and 5% CO2. After incubation, buffer was aspirated from the plates and 50 μL of fresh assay buffer is added. Compounds were added by a compouns dispenser (Tecan) and DMSO concentration was normalized to 1% across each plate. 50 μL of RPMI-8866 cells (2×10^6 per mL) were added to each well and the plates were incubated for 1 hour at 37° C. and 5% CO2. After incubation, plates were allowed to cool to RT for 10 minutes before being washed four times in assay buffer by an automated plate washer (BioTek). After washing, 100 μL of a 1:1 mixture of assay buffer and CellTiter GLO 2.0 reagent (Promega) were added to each well. Plates were mixed for 2 minutes at 1000 rpm and then allowed to incubate an additional 10 minutes before reading out luminescence on a Tecan Spark plate reader. Raw data was converted to percent inhibition based on DMSO only and control compound wells, and curves were analyzed by 4-parameter fit within Dotmatics software.

α4β1 integrin = α4β1 integrin (Homo sapiens (Human), UniProt P05556+P13612); test: Integrin Adhesion Assay: Protocol 5 (VCAM-coated plate, RPMI-8866 cells with stable LOF mutation of the ITGB7 gene); assay type: cell-based; conditions: RPMI-8866 cells with stable LOF mutation of the ITGB7 gene; read-out: Mean IC50 α4β1 KO^b
Sequence of α4β1 integrin (P13612 34-1032): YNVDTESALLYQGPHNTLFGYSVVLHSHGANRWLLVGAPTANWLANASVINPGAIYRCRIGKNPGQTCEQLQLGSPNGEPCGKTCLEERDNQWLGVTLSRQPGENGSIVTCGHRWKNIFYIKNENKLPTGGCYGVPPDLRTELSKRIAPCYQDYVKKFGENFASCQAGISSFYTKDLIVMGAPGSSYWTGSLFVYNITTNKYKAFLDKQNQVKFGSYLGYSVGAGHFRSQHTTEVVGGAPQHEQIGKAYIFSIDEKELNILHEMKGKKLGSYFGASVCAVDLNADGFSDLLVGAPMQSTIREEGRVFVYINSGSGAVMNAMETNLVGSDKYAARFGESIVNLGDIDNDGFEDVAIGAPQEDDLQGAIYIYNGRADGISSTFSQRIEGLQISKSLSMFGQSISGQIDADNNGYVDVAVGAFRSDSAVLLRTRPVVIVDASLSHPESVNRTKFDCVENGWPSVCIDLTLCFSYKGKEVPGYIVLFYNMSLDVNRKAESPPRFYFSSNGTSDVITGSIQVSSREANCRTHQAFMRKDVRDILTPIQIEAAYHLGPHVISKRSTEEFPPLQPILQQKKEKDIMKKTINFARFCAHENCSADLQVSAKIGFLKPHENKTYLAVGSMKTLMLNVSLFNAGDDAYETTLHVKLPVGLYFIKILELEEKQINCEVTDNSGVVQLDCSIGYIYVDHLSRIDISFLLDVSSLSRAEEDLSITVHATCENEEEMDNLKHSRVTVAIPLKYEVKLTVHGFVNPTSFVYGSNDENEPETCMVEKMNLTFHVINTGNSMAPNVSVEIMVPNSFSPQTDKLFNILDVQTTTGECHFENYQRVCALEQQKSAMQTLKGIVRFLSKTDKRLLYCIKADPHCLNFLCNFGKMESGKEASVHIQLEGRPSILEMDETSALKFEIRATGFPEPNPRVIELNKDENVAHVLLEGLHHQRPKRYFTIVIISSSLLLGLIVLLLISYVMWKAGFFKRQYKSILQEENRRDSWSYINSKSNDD
Sequence of α4β1 integrin (P05556 21-798): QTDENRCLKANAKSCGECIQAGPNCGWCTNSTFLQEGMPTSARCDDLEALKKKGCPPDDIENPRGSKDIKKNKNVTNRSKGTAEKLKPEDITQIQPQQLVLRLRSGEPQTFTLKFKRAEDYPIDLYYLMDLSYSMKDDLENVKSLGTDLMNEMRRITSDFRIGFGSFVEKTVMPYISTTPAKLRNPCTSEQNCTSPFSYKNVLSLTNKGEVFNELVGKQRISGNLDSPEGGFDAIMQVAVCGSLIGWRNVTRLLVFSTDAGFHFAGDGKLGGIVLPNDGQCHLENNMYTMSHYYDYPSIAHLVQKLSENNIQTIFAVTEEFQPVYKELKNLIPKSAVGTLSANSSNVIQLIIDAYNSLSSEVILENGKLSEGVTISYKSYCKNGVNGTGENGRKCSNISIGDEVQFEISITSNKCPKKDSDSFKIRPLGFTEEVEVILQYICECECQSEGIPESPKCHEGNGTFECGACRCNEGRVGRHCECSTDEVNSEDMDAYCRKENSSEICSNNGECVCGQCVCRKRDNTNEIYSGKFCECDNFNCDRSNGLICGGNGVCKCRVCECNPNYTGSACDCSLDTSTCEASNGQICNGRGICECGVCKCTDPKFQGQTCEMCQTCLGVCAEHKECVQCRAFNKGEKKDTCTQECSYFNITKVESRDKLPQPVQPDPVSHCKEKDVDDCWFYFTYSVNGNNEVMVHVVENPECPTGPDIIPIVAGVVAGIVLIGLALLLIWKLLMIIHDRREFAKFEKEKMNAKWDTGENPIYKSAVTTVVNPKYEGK
Outline: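 RPMI-8866 B cells with CRISPR/Cas9 ITGB7 knockout (clonal, verified by flow cytometry) adhered to VCAM-coated wells for 1 h at 37° C in HEPES/NaCl buffer with 1 mM MnCl2, 0.1 mM CaCl2, 1% BSA, 1% DMSO. Bound cells quantified by CellTiter-Glo luminescence after washing; % inhibition versus DMSO and control, 4-parameter fit.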

Sequence of α4β7 integrin (P13612 34-1032): as the sequence (P13612 34-1032) above
Sequence of α4β7 integrin (P26010 20-798): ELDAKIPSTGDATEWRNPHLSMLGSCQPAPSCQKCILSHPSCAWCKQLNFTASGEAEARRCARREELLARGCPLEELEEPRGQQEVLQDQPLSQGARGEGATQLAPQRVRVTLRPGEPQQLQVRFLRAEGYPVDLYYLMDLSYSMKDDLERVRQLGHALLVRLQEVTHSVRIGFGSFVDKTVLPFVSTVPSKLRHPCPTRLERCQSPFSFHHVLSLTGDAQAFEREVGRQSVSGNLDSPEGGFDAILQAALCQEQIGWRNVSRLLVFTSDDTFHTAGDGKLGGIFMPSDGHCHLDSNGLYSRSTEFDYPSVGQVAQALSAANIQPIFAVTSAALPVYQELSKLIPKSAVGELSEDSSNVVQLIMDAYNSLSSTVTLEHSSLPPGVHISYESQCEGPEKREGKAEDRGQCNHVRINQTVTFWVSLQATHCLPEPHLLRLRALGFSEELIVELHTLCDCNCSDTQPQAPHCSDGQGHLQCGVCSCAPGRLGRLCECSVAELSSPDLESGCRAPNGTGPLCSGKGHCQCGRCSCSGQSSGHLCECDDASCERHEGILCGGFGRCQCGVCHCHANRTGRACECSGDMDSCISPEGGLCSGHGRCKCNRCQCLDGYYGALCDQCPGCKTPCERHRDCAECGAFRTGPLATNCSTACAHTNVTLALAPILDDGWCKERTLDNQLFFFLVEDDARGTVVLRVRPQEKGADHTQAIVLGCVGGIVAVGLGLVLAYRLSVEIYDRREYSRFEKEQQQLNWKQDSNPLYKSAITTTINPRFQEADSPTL

SMILES | IC50 (α4β7 integrin) | IC50 (α4β1 integrin)
Cc1ccnc(C)c1-c1ccc(F)c(C(=O)N[C@@H](Cc2cccc3c(-c4c(C(F)(F)F)c5ccccc5n(C)c4=O)cccc23)C(=O)O)c1F [Compound 315] | 0.01 to 0.1 µM | > 1 µM
Cn1c(=O)c(-c2cccc3c(C[C@H](NC(=O)c4c(F)cc(N5CCOC[C@@H]5C(F)(F)F)cc4F)C(=O)O)cccc23)c(C(F)(F)F)c2ccccc21 [Compound 317] | 0.01 to 0.1 µM | > 1 µM
Cn1c(=O)c(-c2cccc3c(C[C@H](NC(=O)c4c(F)cc(N5CCCC[C@@H]5C(F)(F)F)cc4F)C(=O)O)cccc23)c(C(F)(F)F)c2ccccc21 [Compound 318] | 0.1 to 1 µM | > 1 µM
CC[C@@H](Nc1cc(F)c(C(=O)N[C@@H](Cc2cccc3c(-c4c(C(F)(F)F)c5ccccc5n(C)c4=O)cccc23)C(=O)O)c(F)c1)C(F)(F)F [Compound 321] | 0.01 to 0.1 µM | > 1 µM
Cn1c(=O)c(-c2cccc3c(C[C@H](NC(=O)c4c(F)cc5cnn(CC(F)(F)F)c5c4F)C(=O)O)cccc23)c(C(F)(F)F)c2ccccc21 [Compound 322] | 0.01 to 0.1 µM | 0.1 to 1 µM
Cn1c(=O)c(-c2cccc3c(C[C@H](NC(=O)c4c(F)cc(N(CC(F)(F)F)CC(F)(F)F)cc4F)C(=O)O)cccc23)c(C(F)(F)F)c2ccccc21 [Compound 324] | 0.01 to 0.1 µM | > 1 µM
Cn1c(=O)c(-c2cccc3c(C[C@H](NC(=O)c4c(F)cc(C(F)(F)F)cc4F)C(=O)O)cccc23)c(C(F)(F)F)c2ccccc21 [Compound 325] | > 1 µM | > 1 µM
Cc1[nH]c2ccccc2c1-c1cc(F)c(C(=O)N[C@@H](Cc2cccc3c(-c4c(C(F)(F)F)c5ccccc5n(C)c4=O)cccc23)C(=O)O)c(F)c1 [Compound 327] | 0.1 to 1 µM | > 1 µM
Cc1cccc(C)c1-c1nc(C)c(C(=O)N[C@@H](Cc2cccc3c(-c4c(C(F)(F)F)c5ccccc5n(C)c4=O)cccc23)C(=O)O)n1C [Compound 330] | 0.01 to 0.1 µM | > 1 µM
Cn1c(=O)c(-c2cccc3c(C[C@H](NC(=O)c4c(F)cc(N5CC(C)(C)OC(C)(C)C5)cc4F)C(=O)O)cccc23)c(C(F)(F)F)c2ccccc21 [Compound 331] | 0.01 to 0.1 µM | > 1 µM
Cn1c(=O)c(-c2cccc3c(C[C@H](NC(=O)[C@]4(C)CC[C@@H](N5CCOC[C@@H]5C(F)(F)F)CC4)C(=O)O)cccc23)c(C(F)(F)F)c2ccccc21 [Compound 346] | 0.01 to 0.1 µM | > 1 µM
CN1CCN(c2cc(F)c(C(=O)N[C@@H](Cc3cccc4c(-c5c(C(F)(F)F)c6ccccc6n(C)c5=O)cccc34)C(=O)O)c(F)c2)CC1 [Compound 350] | 0.01 to 0.1 µM | > 1 µM
Cn1c(=O)c(-c2cccc3c(C[C@H](NC(=O)c4c(F)cccc4CN4CCCC4)C(=O)O)cccc23)c(C(F)(F)F)c2ccccc21 [Compound 351] | < 0.01 µM | > 1 µM
CN1CCN(Cc2cccc(F)c2C(=O)N[C@@H](Cc2cccc3c(-c4c(C(F)(F)F)c5ccccc5n(C)c4=O)cccc23)C(=O)O)CC1 [Compound 353] | 0.01 to 0.1 µM | > 1 µM
O=C(N[C@@H](Cc1cccc2c(-c3cccc4ccncc34)cccc12)C(=O)O)c1c(F)cccc1CN1CCCC1 [Compound 356] | 0.01 to 0.1 µM | > 1 µM
CN(C)Cc1cccc(F)c1C(=O)N[C@@H](Cc1cccc2c(-c3cccc4ccncc34)cccc12)C(=O)O [Compound 357] | 0.01 to 0.1 µM | > 1 µM
O=C(N[C@@H](Cc1cccc2c(-c3cccc4ccncc34)cccc12)C(=O)O)c1c(F)cccc1CN1CCC(F)(F)CC1 [Compound 358] | 0.01 to 0.1 µM | > 1 µM
Cn1c(=O)c(-c2cccc3c(C[C@H](NC(=O)c4c(F)cc(N5CCOC[C@@H]5C(F)(F)F)cc4CN4CCCC4)C(=O)O)cccc23)c(C(F)(F)F)c2ccccc21 [Compound 359] | < 0.01 µM | > 1 µM
CN1CCN(Cc2cc(N3CCOC[C@@H]3C(F)(F)F)cc(F)c2C(=O)N[C@@H](Cc2cccc3c(-c4c(C(F)(F)F)c5ccccc5n(C)c4=O)cccc23)C(=O)O)CC1 [Compound 360] | < 0.01 µM | > 1 µM
